Results reported in patent US20260226020A1, “Nav 1.7 AND/OR Nav 1.8 BLOCKING HYDRAZIDES, PROCESSES FOR THE PREPARATION THEREOF, COMPOSITIONS, USES, METHODS OF TREATMENT USING SAME AND KITS” (Eurofarma Laboratórios S.A., priority 2023, published 2026).

Tests used:
[1] = biological target: T1, human sodium channels Nav 1.7 (Homo sapiens, UniProt Q15858); test: Automated whole-cell voltage-clamp (ScreenPatch 384P) sodium current block in CHO cells expressing Nav 1.7; format: cell-based; conditions: CHO cells stably expressing human Nav 1.7; whole cell patch clamp, inactivation step -40 mV 8 s, test step 0 mV (TP1A), room temperature; mean where tested in two or more assays; read-out: Nav1.7 IC50
T1 construct: expressed in transfected cells
Protocol: (§1) Biological assays were performed on Chinese hamster ovary (CHO) cells that express human sodium channels Nav 1.8 or Nav 1.7 in a stable manner.
(§2) The experimental protocol voltage-clamp using the whole cell configuration was established on the automated ScreenPatch© 384P platform (SP384PE, Nanion Technologies, Livingston, NJ) and the results were recorded with a Nanion 384-well Patch Clamp chip (NPC) (Nanion Technologies, Livingston, NJ).
(§3) Formula I compounds were diluted in eight concentrations in the extracellular solution composed of saline saline solution, buffered with HEPES (mM): NaCl, 137; KCl, 4; CaCl2, 3.8; MgCl2, 1; HEPES, 10; Glucose, 10; pH 7.4. The […], 50; CsF, 90; MgCl2, 5; EGTA, 5; HEPES, 10; pH 7.2. The duration of exposure of each compound with cells expressing Nav 1.7 or Nav 1.8 was at least five minutes, and the assays were performed at room temperature.
(§4) The measurements of the sodium currents of Nav 1.8 and Nav 1.7 were obtained using the voltage protocol described below.
(§5) A holding voltage of −100 mV was established followed by an inactivation voltage step at −40 mV for 8 seconds, followed by a step of −100 mV for 20 ms, followed by a 20 ms step for 10 mV for Nav 1.8 or 0 mV for Nav 1.7 (TP1A) before returning to the holding voltage of −100 mV.
(§6) The protocol was repeated at a frequency of 0.05 Hz and the amplitude of the current was quantified throughout the recording of the TP1A phase. The variation in the amplitude of the peak current was evaluated according to the formula described below, after exposing the cells expressing the channels to each concentration of the different compounds:
(§7) wherein ITP1A,basal and ITP1A,molecule represent the peaks of sodium current input into TP1A before exposure to the compound and in the presence of the compound, respectively.
(§8) The decrease in the amplitude of the peak current, after the exposure of the cells to the compounds, was used to calculate the percentage of relative blockage of the channels in relation to the positive control according to the formula below: […]
(§9) wherein % V and % CP represent the means of the values of current inhibition with a vehicle (DMSO) and positive controls, respectively. The sodium currents of the positive control were considered as 100%.
(§10) wherein [Test] represents the concentration of the molecule evaluated, CI50 is the concentration of the compound that generates half of the maximum inhibition, N is the Hill coefficient, and % Block′ is the percentage of sodium channel current (Nav 1.8 and Nav 1.7) blocked at each concentration of the molecule evaluated. Data were obtained by nonlinear regression (nonlinear least squares) with XLfit for Excel (Microsoft, Redmond, WA).
(§11) The compounds were tested in at least one assay to obtain the value of CI50. For compounds that were tested in two or more assays, the results are described as the means of the CI50 values.

[2] = biological target: T2, human sodium channels Nav 1.8 (Homo sapiens, UniProt Q9Y5Y9); test: Automated whole-cell voltage-clamp (ScreenPatch 384P) sodium current block in CHO cells expressing Nav 1.8; format: cell-based; conditions: CHO cells stably expressing human Nav 1.8; whole cell patch clamp, inactivation step -40 mV 8 s, test step 10 mV (TP1A), room temperature; mean where tested in two or more assays; read-out: Nav1.8 IC50
T2 construct: expressed in transfected cells
Protocol: as §1, §2, §3, §4, §5, §6, §7, §8, §9, §10, §11

T2 sequence (Q9Y5Y9 whole entry): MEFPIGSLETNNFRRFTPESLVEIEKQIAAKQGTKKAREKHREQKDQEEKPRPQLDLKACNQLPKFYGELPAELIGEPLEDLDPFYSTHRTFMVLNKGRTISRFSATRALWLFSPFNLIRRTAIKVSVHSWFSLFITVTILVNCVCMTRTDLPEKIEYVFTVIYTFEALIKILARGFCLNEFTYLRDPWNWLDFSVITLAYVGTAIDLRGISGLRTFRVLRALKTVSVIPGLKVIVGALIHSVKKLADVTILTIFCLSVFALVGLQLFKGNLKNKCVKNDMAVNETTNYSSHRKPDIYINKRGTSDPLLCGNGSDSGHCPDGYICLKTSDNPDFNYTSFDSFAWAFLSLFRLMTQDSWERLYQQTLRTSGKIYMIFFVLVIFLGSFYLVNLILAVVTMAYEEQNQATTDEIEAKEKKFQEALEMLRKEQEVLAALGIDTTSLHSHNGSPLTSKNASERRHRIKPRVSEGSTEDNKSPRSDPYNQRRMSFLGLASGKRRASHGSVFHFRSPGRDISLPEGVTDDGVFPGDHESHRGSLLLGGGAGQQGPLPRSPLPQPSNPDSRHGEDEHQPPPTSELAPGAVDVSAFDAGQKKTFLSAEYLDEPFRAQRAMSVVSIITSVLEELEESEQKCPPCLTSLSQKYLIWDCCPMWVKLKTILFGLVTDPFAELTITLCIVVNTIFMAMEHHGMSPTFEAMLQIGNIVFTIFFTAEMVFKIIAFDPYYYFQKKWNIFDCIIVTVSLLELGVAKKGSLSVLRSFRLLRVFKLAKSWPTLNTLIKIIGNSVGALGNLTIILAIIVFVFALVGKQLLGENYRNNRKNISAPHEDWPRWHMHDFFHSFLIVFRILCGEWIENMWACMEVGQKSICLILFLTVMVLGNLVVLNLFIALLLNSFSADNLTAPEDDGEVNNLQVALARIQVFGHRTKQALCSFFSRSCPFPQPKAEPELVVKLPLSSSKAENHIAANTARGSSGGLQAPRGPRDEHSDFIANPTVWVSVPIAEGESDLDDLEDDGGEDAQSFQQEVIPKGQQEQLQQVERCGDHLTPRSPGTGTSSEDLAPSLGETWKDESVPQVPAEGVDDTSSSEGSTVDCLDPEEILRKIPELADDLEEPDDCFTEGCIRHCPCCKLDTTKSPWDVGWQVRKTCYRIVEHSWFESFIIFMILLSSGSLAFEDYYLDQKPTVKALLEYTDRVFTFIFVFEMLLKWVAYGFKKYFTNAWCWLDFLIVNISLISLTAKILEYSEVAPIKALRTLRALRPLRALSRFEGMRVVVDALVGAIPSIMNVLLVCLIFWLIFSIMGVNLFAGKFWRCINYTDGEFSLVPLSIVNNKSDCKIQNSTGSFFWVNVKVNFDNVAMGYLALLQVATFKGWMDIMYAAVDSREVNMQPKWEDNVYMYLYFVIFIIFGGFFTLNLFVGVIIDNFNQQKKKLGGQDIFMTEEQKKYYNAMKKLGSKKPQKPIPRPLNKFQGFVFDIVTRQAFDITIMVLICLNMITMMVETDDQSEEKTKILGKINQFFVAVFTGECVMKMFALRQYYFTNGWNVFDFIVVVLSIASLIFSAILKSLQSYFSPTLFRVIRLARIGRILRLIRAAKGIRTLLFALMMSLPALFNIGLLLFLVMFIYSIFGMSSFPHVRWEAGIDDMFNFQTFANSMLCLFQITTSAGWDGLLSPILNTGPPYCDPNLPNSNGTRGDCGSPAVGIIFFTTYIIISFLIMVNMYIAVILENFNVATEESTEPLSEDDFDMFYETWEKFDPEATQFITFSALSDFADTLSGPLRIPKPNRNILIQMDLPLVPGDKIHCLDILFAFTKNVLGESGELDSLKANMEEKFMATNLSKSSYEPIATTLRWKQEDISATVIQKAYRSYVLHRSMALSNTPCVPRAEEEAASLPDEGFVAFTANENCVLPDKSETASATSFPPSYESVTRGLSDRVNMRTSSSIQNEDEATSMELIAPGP
T1 sequence (Q15858 whole entry): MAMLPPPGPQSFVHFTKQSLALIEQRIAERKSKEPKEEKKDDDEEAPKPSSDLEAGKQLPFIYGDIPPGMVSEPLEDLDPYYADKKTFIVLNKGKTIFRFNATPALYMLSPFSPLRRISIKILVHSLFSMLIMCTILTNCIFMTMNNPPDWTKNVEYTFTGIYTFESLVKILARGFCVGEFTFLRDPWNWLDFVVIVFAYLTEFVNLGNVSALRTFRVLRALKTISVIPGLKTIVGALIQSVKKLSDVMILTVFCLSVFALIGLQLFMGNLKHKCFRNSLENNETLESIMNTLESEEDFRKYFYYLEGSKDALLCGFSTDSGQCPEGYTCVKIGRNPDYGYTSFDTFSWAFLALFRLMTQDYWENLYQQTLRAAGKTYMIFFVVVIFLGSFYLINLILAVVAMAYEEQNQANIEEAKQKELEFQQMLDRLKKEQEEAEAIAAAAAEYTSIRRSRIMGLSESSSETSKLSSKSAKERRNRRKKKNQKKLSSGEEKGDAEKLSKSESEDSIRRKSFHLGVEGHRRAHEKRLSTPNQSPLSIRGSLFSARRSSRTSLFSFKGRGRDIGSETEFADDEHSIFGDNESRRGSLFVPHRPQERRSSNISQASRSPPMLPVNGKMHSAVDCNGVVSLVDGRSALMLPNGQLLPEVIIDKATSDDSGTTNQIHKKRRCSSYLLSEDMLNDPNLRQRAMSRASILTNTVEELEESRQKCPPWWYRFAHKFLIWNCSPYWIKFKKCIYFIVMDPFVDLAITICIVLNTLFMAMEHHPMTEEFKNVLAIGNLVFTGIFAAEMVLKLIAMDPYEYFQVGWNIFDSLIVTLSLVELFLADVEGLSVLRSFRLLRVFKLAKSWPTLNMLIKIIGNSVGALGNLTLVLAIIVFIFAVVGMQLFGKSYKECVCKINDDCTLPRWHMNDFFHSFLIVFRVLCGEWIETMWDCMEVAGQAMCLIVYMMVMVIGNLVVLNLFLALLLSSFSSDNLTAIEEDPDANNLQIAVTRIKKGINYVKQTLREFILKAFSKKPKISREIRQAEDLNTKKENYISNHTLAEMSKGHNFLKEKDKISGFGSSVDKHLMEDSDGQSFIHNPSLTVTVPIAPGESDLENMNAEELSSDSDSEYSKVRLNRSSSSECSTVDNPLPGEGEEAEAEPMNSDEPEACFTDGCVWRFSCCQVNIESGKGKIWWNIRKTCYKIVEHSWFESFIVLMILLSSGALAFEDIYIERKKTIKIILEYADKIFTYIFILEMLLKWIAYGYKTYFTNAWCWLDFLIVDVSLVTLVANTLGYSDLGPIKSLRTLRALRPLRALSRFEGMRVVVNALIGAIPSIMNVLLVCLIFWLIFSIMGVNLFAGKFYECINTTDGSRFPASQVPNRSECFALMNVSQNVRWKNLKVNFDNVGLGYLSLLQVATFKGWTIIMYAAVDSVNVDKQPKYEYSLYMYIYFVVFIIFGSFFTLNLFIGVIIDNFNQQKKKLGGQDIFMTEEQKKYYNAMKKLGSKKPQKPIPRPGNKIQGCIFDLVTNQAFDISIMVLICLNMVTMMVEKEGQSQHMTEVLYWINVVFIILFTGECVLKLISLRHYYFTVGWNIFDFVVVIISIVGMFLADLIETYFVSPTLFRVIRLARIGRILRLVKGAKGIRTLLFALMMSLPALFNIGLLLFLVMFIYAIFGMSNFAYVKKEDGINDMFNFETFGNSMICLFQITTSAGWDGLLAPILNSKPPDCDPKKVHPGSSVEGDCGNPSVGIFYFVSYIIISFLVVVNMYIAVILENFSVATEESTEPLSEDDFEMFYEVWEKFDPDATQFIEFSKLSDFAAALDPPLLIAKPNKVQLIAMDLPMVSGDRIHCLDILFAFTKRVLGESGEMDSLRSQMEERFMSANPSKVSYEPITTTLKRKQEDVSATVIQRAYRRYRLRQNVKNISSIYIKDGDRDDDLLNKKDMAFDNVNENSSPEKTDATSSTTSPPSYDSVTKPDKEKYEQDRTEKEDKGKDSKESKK

Row | IC50 [1] [nM] | IC50 [2] [nM] | SMILES
1 | > 1000 | > 1000 | CCOc1ccc(-c2cncc(C(=O)NN[C@@H](C)c3cc(OC)cc(OC)c3)n2)cc1 (single isomer, unassigned) [Compound 24]
2 | > 1000 | 500 to 1000 | CCOc1ccc(-c2cncc(C(=O)NN[C@H](C)c3cc(OC)cc(OC)c3)n2)cc1 (single isomer, unassigned) [Compound 25]
3 | > 1000 | 500 to 1000 | COc1ccc(-c2cncc(C(=O)NNCc3cc(OC)cc(OC)c3)n2)cc1 [Compound 1, N′-(3,5-dimethoxybenzyl)-6-(4-methoxyphenyl)pyrazine-2-carbohydrazide]
4 | > 1000 | > 1000 | COc1ccc(-c2cncc(C(=O)NNCc3ccc(Cl)cc3)n2)cc1 [Compound 2, N′-(4-chlorobenzyl)-6-(4-methoxyphenyl)pyrazine-2-carbohydrazide]
5 | > 1000 | < 500 | COc1cc(CNNC(=O)c2cncc(-c3ccc(OC(C)C)cc3)n2)cc(OC)c1 [Compound 3, N′-(3,5-dimethoxybenzyl)-6-(4-isopropoxyphenyl)pyrazine-2-carbohydrazide]
6 | > 1000 | > 1000 | O=C(NNCc1ccc(Cl)cc1)c1cncc(-c2ccc(OC3CC3)cc2)n1 [Compound 4, N′-(4-chlorobenzyl)-6-(4-cyclopropoxyphenyl)pyrazine-2-carbohydrazide]
7 | > 1000 | > 1000 | O=C(NNCc1ccc(Cl)cc1)c1cncc(-c2ccc(Cl)cc2)n1 [Compound 5, N′-(4-chlorobenzyl)-6-(4-chlorophenyl)pyrazine-2-carbohydrazide]
8 | > 1000 | > 1000 | O=C(NN1CCc2cc(Cl)ccc2C1)c1cncc(-c2ccc(Cl)cc2)n1 [Compound 6, N-(6-chloro-3,4-dihydroisoquinoline-2 (1H)-yl)-6-(4-chlorophenyl)pyrazine-2-carboxamide]
9 | > 1000 | 500 to 1000 | COc1cc(CNNC(=O)c2cncc(-c3ccc(OC(F)F)cc3)n2)cc(OC)c1 [Compound 7, 6-(4-(difluoromethoxy)phenyl)-N′-(3,5-dimethoxybenzyl)pyrazine-2-carbohydrazide]
10 | > 1000 | < 500 | COc1cc(CNNC(=O)c2cncc(-c3ccc(OC(F)F)nc3)n2)cc(OC)c1 [Compound 8, 6-(6-(difluoromethoxy)pyridin-3-yl)-N′-(3,5-dimethoxybenzyl)pyrazine-2-carbohydrazide]
11 | > 1000 | > 1000 | CCOc1ccc(-c2cncc(C(=O)NNCc3ccc(Cl)cc3)n2)cc1 [Compound 9, N′-(4-chlorobenzyl)-6-(4-ethoxyphenyl)pyrazine-2-carbohydrazide]
12 | 500 to 1000 | < 500 | CCOc1ccc(-c2cncc(C(=O)NNCc3cc(OC)cc(OC)c3)n2)cc1 [Compound 10, N′-(3,5-dimethoxybenzyl)-6-(4-ethoxyphenyl)pyrazine-2-carbohydrazide]
13 | > 1000 | > 1000 | CCOc1ccc(-c2cncc(C(=O)NN3CCCc4ccc(OC)cc4C3)n2)cc1 [Compound 11, 6-(4-ethoxyphenyl)-N-(8-methoxy-1,3,4,5-tetrahydro-2H-benzo[c]azepin-2-yl)pyrazine-2-carboxamide]
14 | > 1000 | > 1000 | CCOc1ccc(-c2cncc(C(=O)NN3CCOc4ccc(OC)cc4C3)n2)cc1 [Compound 12, 6-(4-ethoxyphenyl)-N-(7-methoxy-2,3-dihydrobenzo[f][1,4]oxazepine-4(5H)-yl)pyrazine-2-carboxamide]
15 | > 1000 | < 500 | CCOc1ccc(-c2cncc(C(=O)NN3Cc4ccc(OC)cc4C3)n2)cc1 [Compound 13, 6-(4-ethoxyphenyl)-N-(5-methoxyisoindolin-2-yl)pyrazine-2-carboxamide]
16 | > 1000 | < 500 | CCOc1ccc(-c2cncc(C(=O)NNCc3cc(OC)ccc3C)n2)cc1 [Compound 14, 6-(4-ethoxyphenyl)-N′-(5-methoxy-2-methylbenzyl)pyrazine-2-carbohydrazide]
17 | > 1000 | < 500 | CCOc1ccc(-c2cncc(C(=O)NNCc3cc(OC)ccc3F)n2)cc1 [Compound 15, 6-(4-ethoxyphenyl)-N′-(2-fluoro-5-methoxybenzyl)pyrazine-2-carbohydrazide]
18 | > 1000 | < 500 | CCOc1ccc(-c2cncc(C(=O)NNCc3cccc(OC)c3)n2)cc1 [Compound 16, 6-(4-ethoxyphenyl)-N′-(3-methoxybenzyl)pyrazine-2-carbohydrazide]
19 | > 1000 | > 1000 | CCOc1ccc(-c2cncc(C(=O)NN(C)Cc3cc(OC)cc(OC)c3)n2)cc1 [Compound 17, N′-(3,5-dimethoxybenzyl)-6-(4-ethoxyphenyl)-N′-methylpyrazine-2-carbohydrazide]
20 | > 1000 | < 500 | CCOc1ccc(-c2cncc(C(=O)NNCc3cc(OC)cnc3C)n2)cc1 [Compound 18, 6-(4-ethoxyphenyl)-N′-((5-methoxy-2-methylpyridin-3-yl)methyl)pyrazine-2-carbohydrazide]
21 | > 1000 | < 500 | CCOc1ccc(-c2cncc(C(=O)NNCc3ccccc3F)n2)cc1 [Compound 22, 6-(4-ethoxyphenyl)-N′-(2-fluorobenzyl)pyrazine-2-carbohydrazide]
22 | > 1000 | 500 to 1000 | CCOc1ccc(-c2cncc(C(=O)NNCc3cc(OC)cnc3F)n2)cc1 [Compound 26, 6-(4-ethoxyphenyl)-N′-((2-fluoro-5-methoxypyridin-3-yl)methyl)pyrazine-2-carbohydrazide]
23 | > 1000 | < 500 | CCOc1ccc(-c2cncc(C(=O)NNCc3cc(OC)cc(OC)c3)n2)c(F)c1 [Compound 27, N′-(3,5-dimethoxybenzyl)-6-(4-ethoxy-2-fluorophenyl)pyrazine-2-carbohydrazide]
24 | > 1000 | < 500 | CCOc1ccc(-c2cncc(C(=O)NNCc3cc(OC)cc(OC)c3)n2)c(C)c1 [Compound 28, N′-(3,5-dimethoxybenzyl)-6-(4-ethoxy-2-methylphenyl)pyrazine-2-carbohydrazide]
25 | > 1000 | 500 to 1000 | CCOc1ccc(-c2cncc(C(=O)NNCc3cc(OC)cc(OC)c3)n2)cn1 [Compound 29, N′-(3,5-dimethoxybenzyl)-6-(6-ethoxypyridin-3-yl)pyrazine-2-carbohydrazide]
26 | > 1000 | < 500 | CCOc1ccc(-c2cncc(C(=O)NNCc3cccc(OC)c3)n2)cn1 [Compound 30, 6-(6-ethoxypyridin-3-yl)-N′-(3-methoxybenzyl)pyrazine-2-carbohydrazide]
27 | > 1000 | > 1000 | CCOc1ccc(-c2cncc(C(=O)NNCc3cc(OC)cnc3F)n2)cn1 [Compound 31, 6-(6-ethoxypyridin-3-yl)-N′-((2-fluoro-5-methoxypyridin-3-yl)methyl)pyrazine-2-carbohydrazide]
28 | > 1000 | < 500 | CCOc1ccc(-c2cncc(C(=O)NNCc3cc(OC)ccc3F)n2)cn1 [Compound 32, 6-(6-ethoxypyridin-3-yl)-N′-(2-fluoro-5-methoxybenzyl)pyrazine-2-carbohydrazide]
29 | > 1000 | < 500 | CCOc1ccc(-c2cncc(C(=O)NNCc3cc(OC)ccc3C)n2)cn1 [Compound 33, 6-(6-ethoxypyridin-3-yl)-N′-(5-methoxy-2-methylbenzyl)pyrazine-2-carbohydrazide]
